In PubChem BioAssay AID504792 (Sanford-Burnham Center for Chemical Genomics, 2011):
Calls of active or inactive are those of the source.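 How the source made its calls: active means IC50 at or below 20 µM; inactive means the rest.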

Target: Glucose-6-phosphate 1-dehydrogenase (Homo sapiens) (UniProt P11413)
Assay: human G6PD enzyme inhibitors, dose response, selectivity assay for P. falciparum G6PD inhibitor project, biochemical, fluorescence (AID 504792)
Details: NADPH resazurin-diaphorase fluorescence

Sequence of Glucose-6-phosphate 1-dehydrogenase (Homo sapiens) (P11413 whole entry, looked up): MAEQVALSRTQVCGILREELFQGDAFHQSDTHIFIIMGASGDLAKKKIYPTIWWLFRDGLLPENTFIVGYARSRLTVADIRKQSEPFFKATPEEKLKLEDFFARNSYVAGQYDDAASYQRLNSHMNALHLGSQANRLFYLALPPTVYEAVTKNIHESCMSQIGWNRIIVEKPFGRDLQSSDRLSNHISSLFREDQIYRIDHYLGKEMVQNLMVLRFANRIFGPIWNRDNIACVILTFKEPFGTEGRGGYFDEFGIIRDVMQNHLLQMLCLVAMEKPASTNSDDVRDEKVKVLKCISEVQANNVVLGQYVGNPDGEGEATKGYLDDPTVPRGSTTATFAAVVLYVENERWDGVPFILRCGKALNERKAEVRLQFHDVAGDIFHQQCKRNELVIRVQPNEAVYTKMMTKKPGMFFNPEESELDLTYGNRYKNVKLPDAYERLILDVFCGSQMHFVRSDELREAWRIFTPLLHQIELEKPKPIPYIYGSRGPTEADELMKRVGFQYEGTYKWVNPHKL

IC50: > 80 µM (inactive)
Compound: C[c-]1[c-](C)[c-](C)[c-](C)[c-]1C.[Fe].c1cc2nccc(N3CCCC3)[c-]2c1 (stereo unspecified)
